Assay results reported in the SangsterLogP compilation.

Test: method code SF-AS, from DOI: 10.1246/bcsj.68.782
Conditions: pH 2.0

Compound	logD
Cc1ccc(C(=O)O)cc1[N+](=O)[O-]	2.35
Cc1ccc(C(=O)O)c(O)c1	2.8
O=C(O)c1cc(O)c(Br)c(O)c1	1.75
COc1cc(C(=O)O)cc(OC)c1OC	1.66
O=C(O)c1ccc(Cl)cc1Cl	2.76
Cc1c(C(=O)O)cccc1[N+](=O)[O-]	2.16

Further lines, results first:

logD	Compound
3.29	O=C(O)c1cc(Cl)cc(Cl)c1
1.73	COc1c([N+](=O)[O-])cc(C(=O)O)cc1[N+](=O)[O-]
2.42	Cc1cc(C(=O)O)ccc1[N+](=O)[O-]
2.53	O=C(O)c1ccc(Cl)c([N+](=O)[O-])c1
1.88	O=C(O)c1cccc(F)c1F
1.63	Cc1ccc([N+](=O)[O-])c(C(=O)O)c1
1.13	COc1cc(C(=O)O)cc(OC)c1O
